Results from US10526327B2, “Histone demethylase inhibitors” (CELGENE QUANTICEL RESEARCH, INC., priority 2013, dated 2020).

target: T1, Jarid1A (Homo sapiens, UniProt P29375); assay: Jarid1A in vitro enzyme inhibition assay (TR-FRET); format: biochemical
T1 construct: purchased BPS Bioscience 50110
T1 sequence (P29375 1-1090): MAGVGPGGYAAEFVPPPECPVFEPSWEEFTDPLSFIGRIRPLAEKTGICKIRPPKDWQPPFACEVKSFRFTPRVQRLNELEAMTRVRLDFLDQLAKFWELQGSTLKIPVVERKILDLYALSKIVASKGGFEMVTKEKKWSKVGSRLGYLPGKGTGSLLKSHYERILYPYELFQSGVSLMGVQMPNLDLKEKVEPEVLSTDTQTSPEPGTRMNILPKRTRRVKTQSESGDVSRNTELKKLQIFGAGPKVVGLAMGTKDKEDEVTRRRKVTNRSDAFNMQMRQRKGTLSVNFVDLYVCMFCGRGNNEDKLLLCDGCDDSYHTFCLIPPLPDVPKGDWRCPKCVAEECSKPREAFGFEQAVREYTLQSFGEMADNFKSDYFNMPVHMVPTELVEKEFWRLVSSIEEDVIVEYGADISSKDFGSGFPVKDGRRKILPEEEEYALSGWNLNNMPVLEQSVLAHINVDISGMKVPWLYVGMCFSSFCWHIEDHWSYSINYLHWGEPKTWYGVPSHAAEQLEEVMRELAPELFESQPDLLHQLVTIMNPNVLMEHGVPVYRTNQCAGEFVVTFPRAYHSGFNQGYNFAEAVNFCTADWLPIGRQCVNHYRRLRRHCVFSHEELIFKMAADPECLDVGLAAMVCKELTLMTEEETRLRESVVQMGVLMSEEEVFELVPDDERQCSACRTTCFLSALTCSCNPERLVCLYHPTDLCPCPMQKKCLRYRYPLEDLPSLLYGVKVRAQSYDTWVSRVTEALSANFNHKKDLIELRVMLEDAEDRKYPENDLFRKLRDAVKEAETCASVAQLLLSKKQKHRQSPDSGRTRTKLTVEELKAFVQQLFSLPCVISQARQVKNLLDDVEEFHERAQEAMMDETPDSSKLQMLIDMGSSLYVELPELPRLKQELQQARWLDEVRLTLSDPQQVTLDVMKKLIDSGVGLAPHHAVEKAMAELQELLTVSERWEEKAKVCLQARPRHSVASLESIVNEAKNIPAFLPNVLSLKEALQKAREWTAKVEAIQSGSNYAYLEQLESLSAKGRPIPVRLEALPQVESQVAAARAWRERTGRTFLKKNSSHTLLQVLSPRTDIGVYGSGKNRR
Summary of the method: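 Demethylation of 300 nM biotin-H3K4me3 peptide by 1 nM baculovirus-expressed Jarid1A (aa 1–1090) with 2 μM α-ketoglutarate, Fe(II) and ascorbate, pH 7.3, 30 min at room temperature. Stopped with EDTA; H3K4me1-2 product detected by TR-FRET (Eu anti-H3K4me1-2/streptavidin-APC). IC50 fitted from 665/615 ratio over 11-point dilutions.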

Row | SMILES | IC50 [nM]
1 | CC(=O)N1CCC[C@H](n2cc(Oc3nc(O)c4ccncc4n3)cn2)C1 [Example 164, 1-[(3S)-3-[4-({4-hydroxypyrido[3,4-d]pyrimidin-2-yl}oxy)-1H-pyrazol-1-yl]piperidin-1-yl]ethan-1-one] | ≤ 100
2 | O=C(C1CC1)N1CCC[C@H](n2cc(Oc3nc(O)c4ccncc4n3)cn2)C1 [Example 165, 2-({1-[(3S)-1-cyclopropanecarbonylpiperidin-3-yl]-1H-pyrazol-4-yl}oxy)pyrido[3,4-d]pyrimidin-4-ol] | ≤ 100
3 | N#CCC(=O)N1CCC[C@H](n2cc(Oc3nc(O)c4ccncc4n3)cn2)C1 [Example 166, 3-[(3S)-3-[4-({4-hydroxypyrido[3,4-d]pyrimidin-2-yl}oxy)-1H-pyrazol-1-yl]piperidin-1-yl]-3-oxopropanenitrile] | ≤ 100
4 | O=C(c1ccccc1)N1CCC[C@H](n2cc(Oc3nc(O)c4ccncc4n3)cn2)C1 [Example 167, 2-({1-[(3S)-1-benzoylpiperidin-3-yl]-1H-pyrazol-4-yl}oxy)pyrido[3,4-d]pyrimidin-4-ol] | ≤ 100
5 | Oc1nc(Oc2cnn([C@H]3CCCN(Cc4ccccc4)C3)c2)nc2cnccc12 [Example 168, 2-({1-[(3S)-1-benzylpiperidin-3-yl]-1H-pyrazol-4-yl}oxy)pyrido[3,4-d]pyrimidin-4-ol] | ≤ 100
6 | Oc1nc(OCc2ccc(C(F)(F)F)cc2)nc2cnccc12 [Example 170, 2-{[4-(trifluoromethyl)phenyl]methoxy}pyrido[3,4-d]pyrimidin-4-ol] | 1000 to 10000
7 | Oc1nc(OCc2ccccc2Cl)nc2cnccc12 [Example 171, 2-[(2-chlorophenyl)methoxy]pyrido[3,4-d]pyrimidin-4-ol] | 1000 to 10000

More lines, now with the values ahead:

Row | IC50 [nM] | SMILES
8 | 1000 to 10000 | Oc1nc(OCc2c(Cl)cccc2Cl)nc2cnccc12 [Example 172, 2-[(2,6-dichlorophenyl)methoxy]pyrido[3,4-d]pyrimidin-4-ol]
9 | 1000 to 10000 | Oc1nc(OCc2cccc(Cl)c2Cl)nc2cnccc12 [Example 173, 2-[(2,3-dichlorophenyl)methoxy]pyrido[3,4-d]pyrimidin-4-ol]
10 | ≤ 100 | Oc1nc(OCCc2ccc(Cl)cc2)nc2cnccc12 [Example 174, 2-[2-(4-chlorophenyl)ethoxy]pyrido[3,4-d]pyrimidin-4-ol]
11 | 1000 to 10000 | Oc1nc(OCCc2ccc(Cl)c(Cl)c2)nc2cnccc12 [Example 175, 2-[2-(3,4-dichlorophenyl)ethoxy]pyrido[3,4-d]pyrimidin-4-ol]
12 | 1000 to 10000 | Oc1nc(OC(c2ccccc2)C(F)(F)F)nc2cnccc12 (stereo not drawn) [Example 176, 2-(2,2,2-trifluoro-1-phenylethoxy)pyrido[3,4-d]pyrimidin-4-ol]
